Measurements reported in PubChem BioAssay AID248 (DTP/NCI, 2004).
Several values for one entry are separate records, joined by “and”; a condition that tells them apart may be missing. Equal entries are not always repeated. Toxic doses and inconclusive results are not listed.

Tested on: L1210 leukemia ip in BDF1 mice, survival T/C
Experiment: NCI In Vivo Anticancer Drug Screen. Data for tumor model L1210 Leukemia (intraperitoneal) in B6D2F1 (BDF1) mice
Conditions: endpoint: mean survival time, higher = longer survival
Outline: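 Tumor was transplanted into mice, which were then dosed with test compound or vehicle alone. Survival was recorded for each group, and the treated figure was expressed relative to the control figure.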

[1] = dose: 25.0 mg/kg/injection, schedule: Q01DX009 (ip), vehicle: saline with Tween-80
[2] = dose: 50.0 mg/kg/injection, schedule: Q01DX009 (ip), vehicle: saline with Tween-80
[3] = dose: 100.0 mg/kg/injection, schedule: Q01DX009 (ip), vehicle: saline with Tween-80
[4] = dose: 50.0 mg/kg/injection, schedule: Q04DX002 (ip), vehicle: Klucel (hydroxypropylcellulose) (HPC)
[5] = dose: 100.0 mg/kg/injection, schedule: Q04DX002 (ip), vehicle: Klucel (hydroxypropylcellulose) (HPC)
[6] = dose: 200.0 mg/kg/injection, schedule: Q04DX002 (ip), vehicle: Klucel (hydroxypropylcellulose) (HPC)
[7] = dose: 400.0 mg/kg/injection, schedule: Q04DX002 (ip), vehicle: Klucel (hydroxypropylcellulose) (HPC)
[8] = dose: 100.0 mg/kg/injection, schedule: Q04DX003 (ip), vehicle: saline
[9] = dose: 200.0 mg/kg/injection, schedule: Q04DX003 (ip), vehicle: saline
[10] = dose: 400.0 mg/kg/injection, schedule: Q04DX003 (ip), vehicle: saline
[11] = dose: 100.0 mg/kg/injection, schedule: Q01DX001 (ip), vehicle: carboxymethylcellulose (CMC)
[12] = dose: 200.0 mg/kg/injection, schedule: Q01DX001 (ip), vehicle: carboxymethylcellulose (CMC)
[13] = dose: 400.0 mg/kg/injection, schedule: Q01DX001 (ip), vehicle: carboxymethylcellulose (CMC)
[14] = dose: 100.0 mg/kg/injection, schedule: Q01DX009 (ip), vehicle: Klucel (hydroxypropylcellulose) (HPC)
[15] = dose: 200.0 mg/kg/injection, schedule: Q01DX009 (ip), vehicle: Klucel (hydroxypropylcellulose) (HPC)
[16] = dose: 400.0 mg/kg/injection, schedule: Q01DX009 (ip), vehicle: Klucel (hydroxypropylcellulose) (HPC)
[17] = dose: 100.0 mg/kg/injection, schedule: Q04DX003 (ip), vehicle: Klucel (hydroxypropylcellulose) (HPC)
[18] = dose: 200.0 mg/kg/injection, schedule: Q04DX003 (ip), vehicle: Klucel (hydroxypropylcellulose) (HPC)
[19] = dose: 400.0 mg/kg/injection, schedule: Q04DX003 (ip), vehicle: Klucel (hydroxypropylcellulose) (HPC)
[20] = dose: 75.0 mg/kg/injection, schedule: Q01DX001 (ip), vehicle: saline
[21] = dose: 150.0 mg/kg/injection, schedule: Q01DX001 (ip), vehicle: saline

`N#CCCCC(=O)c1ccccc1` was tested, and the T/C [1] was 96 % of control, the T/C [2] was 102 % of control and the T/C [3] was 92 % of control.
In the case of `COc1ccc(/C(C)=N\NC(N)=O)cc1`, the T/C [4] is reported as 111 % of control, the T/C [5] is reported as 105 % of control and the T/C [6] is reported as 94 % of control. The T/C [7] was 99 % of control.
In the case of `CCCCCCCCC1SC1CCCCCCCC(=O)OCC1CS1` (centres undefined), the T/C (dose: 100.0 mg/kg/injection, schedule: Q01DX001 (ip), vehicle: other) is reported as 101 % of control, the T/C (dose: 200.0 mg/kg/injection, schedule: Q01DX001 (ip), vehicle: other) is reported as 115 % of control and the T/C (dose: 400.0 mg/kg/injection, schedule: Q01DX001 (ip), vehicle: other) is reported as 93 % of control.
For `N#CCCN1CCN(CCC#N)CC1`, the T/C [8] was 96 % of control, the T/C [9] was 103 % of control and the T/C [10] was 100 % of control.
For `CC(=O)CC(=O)N(c1ccccn1)c1ccccn1`, the T/C [11] was 104 % of control, the T/C [12] was 98 % of control and the T/C [13] was 98 % of control.
`CCCCCCCS(=O)(=O)c1nc2ccccc2[nH]1` was tested, and the T/C [5] was 95 % of control, the T/C [6] was 101 % of control and the T/C [7] was 104 % of control.
For `CCCCCCCC/C=C\CCCCCCCC(=O)OCCCCCCCCCCCCCC`, the T/C [14] was 104 % of control, the T/C [15] was 98 % of control and the T/C [16] was 94 % of control.
`NC(=O)OCc1ccccc1` was tested, and the T/C [4] was 98 % of control, the T/C [5] was 98 % of control and the T/C [6] was 94 % of control. For the same compound, the T/C [7] was 94 % of control.
`COC1C(OC(N)=O)C(O)C(Oc2ccc3c(O)c(N)c(=O)oc3c2C)OC1(C)C` (centres undefined) was tested, and the T/C (dose: 37.5 mg/kg/injection, schedule: Q01DX009 (ip), vehicle: Klucel (hydroxypropylcellulose) (HPC)) was 98 % of control, the T/C (dose: 75.0 mg/kg/injection, schedule: Q01DX009 (ip), vehicle: Klucel (hydroxypropylcellulose) (HPC)) was 101 % of control and the T/C (dose: 150.0 mg/kg/injection, schedule: Q01DX009 (ip), vehicle: Klucel (hydroxypropylcellulose) (HPC)) was 104 % of control. The T/C (dose: 300.0 mg/kg/injection, schedule: Q01DX009 (ip), vehicle: Klucel (hydroxypropylcellulose) (HPC)) was 101 % of control.
For `CCC(C)(C)C(=O)OCc1ccccc1`, the T/C [4] was 105 % of control, the T/C [5] was 94 % of control and the T/C [6] was 94 % of control and 111 % of control. For the same compound, the T/C [7] was 103 % of control.
For `C=CCc1ccc(OC(=O)Nc2ccc(C)cc2Cl)c(OC)c1`, the T/C (dose: 100.0 mg/kg/injection, schedule: Q04DX002 (ip), vehicle: carboxymethylcellulose (CMC)) was 93 % of control and 101 % of control, the T/C (dose: 200.0 mg/kg/injection, schedule: Q04DX002 (ip), vehicle: carboxymethylcellulose (CMC)) was 96 % of control and 100 % of control and the T/C (dose: 400.0 mg/kg/injection, schedule: Q04DX002 (ip), vehicle: carboxymethylcellulose (CMC)) was 97 % of control and 107 % of control.
`C/C(=N\O)C1(O)CCCCC1` was tested, and the T/C [14] was 98 % of control, the T/C [17] was 103 % of control and the T/C [15] was 93 % of control. The T/C [18] was 101 % of control, the T/C [16] was 96 % of control and the T/C [19] was 108 % of control.
With `NS(=O)(=O)c1c[nH]c(=O)[nH]c1=O` the T/C [8] was 104 % of control, the T/C [9] was 102 % of control and the T/C [10] was 102 % of control.
For `CN(C)c1ccnc(Cl)n1`, the T/C (dose: 16.0 mg/kg/injection, schedule: Q01DX Z (ip), vehicle: methylcellulose (MC)) was 97 % of control, the T/C (dose: 31.0 mg/kg/injection, schedule: Q01DX Z (ip), vehicle: methylcellulose (MC)) was 96 % of control and the T/C (dose: 62.0 mg/kg/injection, schedule: Q01DX Z (ip), vehicle: methylcellulose (MC)) was 90 % of control. The T/C (dose: 125.0 mg/kg/injection, schedule: Q01DX Z (ip), vehicle: methylcellulose (MC)) was 92 % of control and 100 % of control and the T/C (dose: 250.0 mg/kg/injection, schedule: Q01DX Z (ip), vehicle: methylcellulose (MC)) was 97 % of control.
`C=COC(=O)NC(C(=O)O)C(C)CC` (centres undefined) was tested, and the T/C [20] was 111 % of control and the T/C [21] was 103 % of control.
`O=C(Nc1cccc(C(F)(F)F)c1)C(c1ccccc1)c1ccccc1` was tested, and the T/C (dose: 50.0 mg/kg/injection, schedule: Q04DX003 (ip), vehicle: Klucel (hydroxypropylcellulose) (HPC)) was 98 % of control, the T/C [14] was 100 % of control and the T/C [17] was 110 % of control. The T/C [15] was 100 % of control, the T/C [18] was 93 % of control and the T/C [19] was 101 % of control.
In the case of `C/C(=N\N)c1ccc(Cl)cc1`, the T/C (dose: 6.25 mg/kg/injection, schedule: Q01DX009 (ip), vehicle: saline with Tween-80) is reported as 93 % of control, the T/C (dose: 12.5 mg/kg/injection, schedule: Q01DX009 (ip), vehicle: saline with Tween-80) is reported as 101 % of control and the T/C [1] is reported as 96 % of control.
In the case of `CCO/C=C/c1ccccc1`, the T/C [3] is reported as 101 % of control, the T/C (dose: 100.0 mg/kg/injection, schedule: Q04DX003 (ip), vehicle: saline with Tween-80) is reported as 93 % of control and the T/C (dose: 200.0 mg/kg/injection, schedule: Q01DX009 (ip), vehicle: saline with Tween-80) is reported as 96 % of control. For the same compound, the T/C (dose: 200.0 mg/kg/injection, schedule: Q04DX003 (ip), vehicle: saline with Tween-80) was 98 % of control and the T/C (dose: 400.0 mg/kg/injection, schedule: Q01DX009 (ip), vehicle: saline with Tween-80) was 90 % of control.
`O=C1SC(c2ccccc2)(c2ccccc2)c2cscc21` was tested, and the T/C [2] was 86 % of control and the T/C [3] was 86 % of control.
With `CC[n+]1ccc(Nc2ccc(NC(=O)c3ccc(Nc4cc[n+](CC)c5ccc([N+](=O)[O-])cc45)cc3)cc2)cc1` the T/C (dose: 4.13 mg/kg/injection, schedule: Q04DX003 (ip), vehicle: saline sonified) was 114 % of control, the T/C (dose: 4.5 mg/kg/injection, schedule: Q01DX009 (ip), vehicle: Klucel (hydroxypropylcellulose) (HPC)) was 117 % of control and the T/C (dose: 6.25 mg/kg/injection, schedule: Q04DX003 (ip), vehicle: Klucel (hydroxypropylcellulose) (HPC)) was 108 % of control. The T/C (dose: 6.25 mg/kg/injection, schedule: Q04DX003 (ip), vehicle: saline sonified) was 117 % of control, the T/C (dose: 9.38 mg/kg/injection, schedule: Q04DX003 (ip), vehicle: saline sonified) was 115 % of control and the T/C (dose: 10.44 mg/kg/injection, schedule: Q01DX009 (ip), vehicle: saline with Tween-80) was 117 % of control. For the same compound, the T/C (dose: 11.0 mg/kg/injection, schedule: Q01DX009 (ip), vehicle: saline) was 115 % of control, the T/C (dose: 12.5 mg/kg/injection, schedule: Q01DX001 (ip), vehicle: Klucel (hydroxypropylcellulose) (HPC)) was 100 % of control and the T/C (dose: 12.5 mg/kg/injection, schedule: Q04DX003 (ip), vehicle: Klucel (hydroxypropylcellulose) (HPC)) was 112 % of control. For the same compound, the T/C (dose: 16.5 mg/kg/injection, schedule: Q01DX009 (ip), vehicle: Klucel (hydroxypropylcellulose) (HPC)) was 175 % of control, the T/C (dose: 25.0 mg/kg/injection, schedule: Q01DX001 (ip), vehicle: Klucel (hydroxypropylcellulose) (HPC)) was 102 % of control and the T/C (dose: 25.0 mg/kg/injection, schedule: Q01DX009 (ip), vehicle: Klucel (hydroxypropylcellulose) (HPC)) was 160 % of control. The T/C (dose: 25.0 mg/kg/injection, schedule: Q01DX009 (ip), vehicle: saline sonified) was 230 % of control, the T/C (dose: 25.0 mg/kg/injection, schedule: Q01DX009 (ip), vehicle: saline) was 160 % of control and the T/C (dose: 25.0 mg/kg/injection, schedule: Q04DX003 (ip), vehicle: Klucel (hydroxypropylcellulose) (HPC)) was 122 % of control. For the same compound, the T/C (dose: 37.5 mg/kg/injection, schedule: Q01DX009 (ip), vehicle: saline) was 184 % of control.
For `CCOC(=O)N/N=C/c1ccccc1OC`, the T/C [20] was 90 % of control, the T/C [21] was 90 % of control and the T/C (dose: 300.0 mg/kg/injection, schedule: Q01DX001 (ip), vehicle: saline) was 96 % of control.
For `COC1=C(Nc2ccccc2C)C(=O)C(OC)=C(Nc2ccccc2C)C1=O`, the T/C (dose: 50.0 mg/kg/injection, schedule: Q01DX001 (ip), vehicle: carboxymethylcellulose (CMC)) was 87 % of control, the T/C [11] was 96 % of control and the T/C [12] was 98 % of control. The T/C [13] was 96 % of control.
In the case of `[Cl][Pt+2][Cl].[NH-]CCN1CC1`, the T/C (dose: 50.0 mg/kg/injection, schedule: Q04DX003 (ip), vehicle: saline) is reported as 122 % of control and the T/C [8] is reported as 122 % of control.
